Here are results for six molecules from patent US20220226283A1, “COMBINATION PRODUCT CONTAINING LIMONOID COMPOUND AND DPP-4 INHIBITOR” (ZHEJIANG YANGSHENGTANG INSTITUTE OF NATURAL MEDICATION CO., …, priority 2019, published 2022).

What all share (type): in vivo
The test system of assay [1] is db/db mice. Nature of the assay: Blood glucose in mouse type II diabetes model (limonoid compound, linagliptin or combination). To be noted: single administration 0.2 g/kg per day by gavage, two weeks, 1 h after the last administration, mean ± SD. An excerpt:
(§1) In the present embodiment, the limonoid compound was selected from nomilin, deacetylnomilin, nomilin acid, deacetylnomilin acid glycoside, and linagliptin single administration group, nomilin single administration group, deacetylnomilin single administration group, nomilin acid single administered group, deacetylnomilin acid glycoside single administration group, and respective combination thereof with linagliptin administration groups were set.
(§2) Conditions for experimental feeding: as type II diabetes model mice, 6-week-old SPF-grade db/db mice were purchased from the Nanjing Model Biology Institute, and subjected to experimental feeding after 7 days of preliminary feeding. It should be noted that the conditions for raising the mice were as follows: the temperature was 23±1° C., the humidity was 55±10%, the lights were turned on between 7 am and 7 pm (the lights were turned off at other time), and the mice were allowed to freely take in water and feed. The experimental feed was mouse growth-stable feed (GB M2118), and the daily feeding and management of the animals were under the responsibility of the animal security department, which provided the animals with sufficient diet and fresh drinking water daily.
(§3) Experimental grouping: male db/db mice (20±2 g) were selected, 18 male mice in each group were tested, and drinking bottles were sterilized weekly. […]

Assay [2] deals with db/db mice. The assay can be described thus: Serum insulin (Elisa) in mouse type II diabetes model (limonoid compound, linagliptin or combination). Particulars: single administration 0.2 g/kg per day by gavage, two weeks, mean ± SD.
Text: as §1, §2, §3

Assay [3] relates to db/db mice. The assay can be described thus: Blood glucose in mouse type II diabetes model (limonoid compound, saxagliptin or combination). To be noted: single administration 0.04 g/kg per day by gavage, two weeks, 1 h after the last administration, mean ± SD.
Text: (§4) In the present example, db/db mice (line name BKS.Cg-Dock7^m+/+Lepr^db/Nju) were used to perform hypoglycemic efficacy evaluation test of animals (blood glucose level and leptin). The limonoid compound was selected from obacunone, isoobacunoic acid and obacunone glycoside, and saxagliptin single administration group, obacunone single administration group, isoobacunoic acid single administration group, obacunone glycoside single administered group, and respective combination thereof with saxagliptin administration groups were set.
as §2
Experimental grouping: male db/db mice (20±2 g) were selected, and 18 male mice in each group were tested. The experimental groups included normal control group (db/m, n=18), model group (db/db, n=18), obacunone group (db/db, n=18), isoobacunoic acid group (db/db, n=18), obacunone glycoside group (db/db, n=18), saxagliptin group (db/db, n=18), obacunone/saxagliptin combination group (db/db, n=18), isoobacunoic acid/saxagliptin combination group (db/db, n=18), obacunone glycoside/saxagliptin combination group (db/db, n=18). […]

Assay [4] has as its system mouse pancreatic islet β-cell injury model (ICR mice modeled with streptozotocin). The assay can be described thus: Blood glucose in mouse pancreatic islet β-cell injury model (limonoid compound, sitagliptin or combination). To be noted: STZ mice, single administration 0.02 g/kg per day by gavage, two weeks, 1 h after the last administration, mean ± SD. An excerpt: In this example, a mouse pancreatic islet β-cell injury model was established by modeling ICR mice with streptozotocin (STZ) (Li Nan et al., Protective effect of pine pollen on kidney damage in diabetic nephropathy mice, Science and Technology Review, 2014, 32 (4/5): 95-99), and used to complete the evaluation of hypoglycemic effect in animals (this model could simulate pancreatic islet β-cell damage state of type I and type II diabetics). The limonoid compound was selected from the group consisting of limonin, isolimonic acid, limonin glycoside, and isolimonic acid glycoside, and sitagliptin single administration group, limonin single administration group, isolimonic acid single administration group, limonin glycoside singe administration group, isolimonic acid glycoside singe administration group, and respective combination thereof with sitagliptin administration groups were set. Conditions of experimental feeding: ICR mice (20±2 g), aged 6 weeks, purchased from Zhejiang Academy of Medical Sciences, and subjected to experimental feeding after 7 days of preliminary feeding. […] The data were expressed as mean and standard deviation. The data before and after were analyzed by t-test, and P<0.05 was considered statistically significant.

The test system of assay [5] is db/db mice. Nature of the assay: Serum leptin (Elisa) in mouse type II diabetes model (limonoid compound, saxagliptin or combination). Particulars: single administration 0.04 g/kg per day by gavage, two weeks, mean ± SD.
Text: as §4
as §2, with “daily. […]” for “daily.”

The subject of assay [6] is mouse pancreatic islet β-cell injury model (ICR mice modeled with streptozotocin). Nature of the assay: Blood glucose in mouse pancreatic islet β-cell injury model (limonoid compound, vildagliptin or combination). Particulars: STZ mice, single administration 0.1 g/kg per day by gavage, two weeks, 1 h after the last administration, mean ± SD. As to the method: It should be noted that the conditions for raising the mice were as follows: the temperature was 23±1° C., the humidity was 55±10%, the lights were turned on between 7 am and 7 pm (the lights were turned off at other time), and the mice were allowed to freely take in water and feed. The experimental feed was mouse growth-stable feed (GB M2118), and the daily feeding and management of the animals were under the responsibility of the animal security department, which provided the animals with sufficient diet and fresh drinking water daily.
SPSS 16.0 software was used for statistical analysis. The data were expressed as mean and standard deviation. The data before and after were analyzed by t-test, and P<0.05 was considered statistically significant.

Each structure is given as a SMILES string.

In the case of `CC#CCn1c(N2CCC[C@@H](N)C2)nc2c1c(=O)n(Cc1nc(C)c3ccccc3n1)c(=O)n2C` [Linagliptin, linagliptin], in assay [1], the Blood glucose value was 11.9 ± 2.1 mmol/L. Also, in assay [2], the Insulin amounted to 8.00 ± 1.94 pg/mL. Take `CC1(C)O[C@@H](CC(=O)O)[C@]2(C)[C@H]3CC[C@@]4(C)[C@H](c5ccoc5)OC(=O)[C@H]5O[C@]54[C@]3(C)C(=O)C[C@@H]12` [Isoobacunoic acid, isoobacunoic acid]: the Blood glucose value in assay [3] was determined as 14.6 ± 3.1 mmol/L. In the case of `CC1(C)OC(=O)C=C[C@]2(C)[C@H]3CC[C@@](C)([C@@H](O[C@@H]4O[C@H](CO)[C@@H](O)[C@H](O)[C@H]4O)c4ccoc4)[C@@]4(O[C@@H]4C(=O)O)[C@]3(C)C(=O)C[C@@H]12` [Obacunone glycoside, obacunone glycoside], the Blood glucose value in assay [3] is recorded as 13.6 ± 2.9 mmol/L. For `N[C@@H](CC(=O)N1CCn2c(nnc2C(F)(F)F)C1)Cc1cc(F)c(F)cc1F` [Sitagliptin, sitagliptin], in assay [4], the Blood glucose value worked out at 21.7 ± 4.9 mmol/L. As to `N#C[C@@H]1C[C@@H]2C[C@@H]2N1C(=O)[C@@H](N)C12CC3CC(CC(O)(C3)C1)C2` [Saxagliptin, saxagliptin], the Blood glucose value in assay [3] stood at 13.9 ± 3.5 mmol/L. Moreover, in assay [5], the Leptin came to 32.52 ± 5.11 pg/mL.

Turning to `N#C[C@@H]1CCCN1C(=O)CNC12CC3CC(CC(O)(C3)C1)C2` [Vildagliptin, vildagliptin], the Blood glucose value in assay [6] came out at 16.9 ± 2.6 mmol/L.
